Test results published in PubChem BioAssay (NCI).
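These data come from cells grown in 96-well plates and exposed to compound for 48 hours at five concentrations. Definition used: TGI = concentration required for complete inhibition of growth.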

Tests used:
Assay in all cases: NCI anticancer screen, dose series, 48 h
T-47D breast = test system: T-47D breast
MALME-3M melanoma = test system: MALME-3M melanoma
NCI-H460 lung = test system: NCI-H460 lung
MDA-MB-435 = test system: MDA-MB-435
MDA-MB-231 breast = test system: MDA-MB-231 breast
SF-539 CNS = test system: SF-539 CNS
MDA-N = test system: MDA-N
TK-10 renal = test system: TK-10 renal
SK-OV-3 ovarian = test system: SK-OV-3 ovarian
NCI/ADR-RES ovarian = test system: NCI/ADR-RES ovarian
SR leukemia = test system: SR leukemia

| SMILES | TGI (T-47D breast) [µM] | TGI (MALME-3M melanoma) [µM] | TGI (NCI-H460 lung) [µM] | TGI (MDA-MB-435) [µM] | TGI (MDA-MB-231 breast) [µM] | TGI (SF-539 CNS) [µM] | TGI (MDA-N) [µM] | TGI (TK-10 renal) [µM] | TGI (SK-OV-3 ovarian) [µM] | TGI (NCI/ADR-RES ovarian) [µM] | TGI (SR leukemia) [µM] |
| --- | --- | --- | --- | --- | --- | --- | --- | --- | --- | --- | --- |
| O=C(Nc1cccc(C(=O)NCCCO)c1)/C(=C/c1ccccc1)NC(=O)c1ccccc1 | > 100 | > 100 | > 100 | > 100 | > 100 | > 100 | > 100 | > 100 | > 100 | > 100 | – |
| O=C(CC1(O)C(=O)Nc2c(Cl)cc(Cl)cc21)c1ccc(F)cc1 (configuration not stated) | – | > 100 | > 100 | – | – | 57.4 | – | > 100 | > 100 | – | 57 |
| COC(=O)[C@]12CSC[C@H]1C[C@H](c1cccc3ccccc13)N2 | > 100 | – | > 100 | > 100 | > 100 | > 100 | > 100 | – | > 100 | > 100 | > 100 |
| CCCC(=O)OC[n+]1ccc(-c2c(COC(=O)NC(C)C)c(COC(=O)NC(C)C)c3n2CCC3)cc1 | > 100 | > 100 | > 100 | > 100 | > 100 | > 100 | – | > 100 | > 100 | > 100 | > 100 |
| CCCCC1(O)CC2CC1C(C)C2(C)C (configuration not stated) | – | > 100 | – | > 100 | > 100 | > 100 | > 100 | > 100 | > 100 | > 100 | > 100 |
| CCCCCCCCCCCCC(Br)C(C)=O (configuration not stated) | – | > 100 | > 100 | – | – | > 100 | – | > 100 | > 100 | – | – |
| COc1cc(CNc2cnc3ccc(N)cc3n2)cc(OC)c1OC | – | > 100 | > 100 | – | – | > 100 | – | > 100 | > 100 | – | – |
| CN(C)C(=NC#N)N(Cc1ccccc1)Cc1ccccc1 | – | > 100 | 34 | – | – | > 100 | – | > 100 | > 100 | – | – |
| O=C(O)CCN(CCCN(CCC(=O)O)CCC(=O)O)CCC(=O)O | – | > 100 | > 100 | – | – | > 100 | – | > 100 | > 100 | – | – |
| Cc1ccc(C(=O)Oc2ccc(/C=C3\CCC/C(=C\c4ccc(OC(=O)c5ccc(C)cc5)cc4)C3=O)cc2)cc1 | > 100 | – | > 100 | > 100 | > 100 | > 100 | > 100 | > 100 | – | > 100 | > 100 |
| CCOC(=O)C1SC(=Nc2ccc(Cl)cc2Cl)N=C1C (configuration not stated) | – | > 100 | > 100 | – | – | > 100 | – | > 100 | – | – | – |
| NC(=O)Cn1c(=O)oc2cc(C(=O)CN3CCOCC3)ccc21 | – | > 100 | – | > 100 | > 100 | > 100 | > 100 | – | > 100 | > 100 | > 100 |
| Cc1ccccc1Nc1nc(NNC(=O)Cc2ccccc2)nc(NNC(=O)c2ccncc2)n1 | > 10 | > 10 | > 10 | – | > 10 | > 10 | > 10 | > 10 | > 10 | > 10 | > 10 |
| CS(=O)(=O)O[C@H]1[C@H](O)c2ccccc2[C@@H]1N=[N+]=[N-] | – | > 100 | > 100 | > 100 | > 100 | > 100 | > 100 | – | > 100 | > 100 | > 100 |
| CCOC(=O)C(NC(=O)CC)(Nc1ccc(F)cc1F)C(F)(F)F (configuration not stated) | > 100 | – | – | > 100 | – | > 100 | > 100 | > 100 | > 100 | > 100 | > 100 |
| O=S(=O)(c1cc(Cl)ccc1Cl)N1CCN(c2cccc(Cl)c2)CC1 | > 100 | > 100 | > 100 | – | > 100 | > 100 | > 100 | > 100 | – | – | > 100 |
| C/C=C\C(CC(=O)OC)CC(=O)N(CCC1CN(S(=O)(=O)C(F)(F)F)c2ccccc21)Cc1ccc(OC)cc1OC (configuration not stated) | > 100 | > 100 | > 100 | > 100 | > 100 | > 100 | > 100 | > 100 | > 100 | > 100 | – |
| Nc1cc(Cl)ccc1SSc1ccc(Cl)cc1N | 45.4 | 36.3 | 31.6 | 25.9 | 20.3 | 31.5 | – | 40.8 | > 100 | 30.4 | > 100 |
| O=C(O)C12CCC(CC1=O)C2 (configuration not stated) | > 100 | > 100 | > 100 | > 100 | – | – | – | > 100 | > 100 | > 100 | > 100 |
| Cc1cc2c(cc1Cl)SC(NNC1=NCCN1)=NS2(=O)=O | > 10 | > 10 | > 10 | > 10 | > 10 | > 10 | > 10 | > 10 | > 10 | > 10 | – |
| CCOC(=O)N/N=C(\CC)OCC | > 100 | > 100 | > 100 | – | > 100 | > 100 | > 100 | > 100 | > 100 | > 100 | > 100 |
| CC(C)OP(=O)(OC(C)C)C(=NCCN=C(NNc1ccccc1[N+](=O)[O-])P(=O)(OC(C)C)OC(C)C)NNc1ccccc1[N+](=O)[O-] | – | 54.5 | – | – | – | > 100 | – | > 100 | – | – | – |
| COC(=O)Cn1c(=O)oc2nc(-c3ccccc3)cc(C(F)(F)F)c21 | > 100 | – | > 100 | > 100 | > 100 | > 100 | > 100 | > 100 | > 100 | > 100 | > 100 |
| COC(=O)C(c1ccc(OC)cc1)N1C(=O)[C@@H](NC(=O)c2ccccc2)[C@H]1[C@@H](C)O (some centres not stated) | – | > 100 | > 100 | – | – | > 100 | – | > 100 | > 100 | – | > 100 |
